Read-outs that look alike come from different tables or passages of the source.
Tested on: panel of cell lines derived from hematological malignancies
Assay: Cell survival assay, CellTiter-Glo readout after 48 hours, hematological panel
Format: cell-based
Design: key to Differential: panel average log(GI50) minus cell line log(GI50); positive = more sensitive
Description: Compound IIa was tested against a panel of cell lines derived from hematological malignancies in a cell survival assay using CellTiter-Glo® as a readout after 48 hours in the presence of compound. Table 18 lists the type of hematological malignancy, the name of the sample, its GI50 (concentration needed to achieve 50% growth inhibition) value in the assay, the logarithm of the GI50 (log(GI50), and the relative sensitivity of each sample (Differential). The differential is calculated by subtracting the log(GI50) for each cell line from the average log(GI50) across the entire panel (0.236 in this case); a positive value indicates a sample that is more sensitive than average, whereas a negative value indicates a sample that is less sensitive than average.

## CC(C)(C)[C@H](c1nc(-c2cc(F)ccc2F)cn1Cc1ccccc1)N(CC[C@H](N)CF)C(=O)CO [Compound IIa]
Homo sapiens, MM1.S, 48 h, MM1-S (MM), read-out: GI50
  GI50: 240 pM
Homo sapiens, MM1.S, 48 h, MM1-S (MM), read-out: Log(GI50) (converted)
  GI50: 240 pM
Homo sapiens, MOLT-3, 48 h, MOLT-3 (ALL), read-out: GI50
  GI50: 340 pM
Homo sapiens, MOLT-3, 48 h, MOLT-3 (ALL), read-out: Log(GI50) (converted)
  GI50: 335 pM
Homo sapiens, MOLT-4, 48 h, MOLT-4 (ALL), read-out: GI50
  GI50: 330 pM
Homo sapiens, MOLT-4, 48 h, MOLT-4 (ALL), read-out: Log(GI50) (converted)
  GI50: 331 pM
Homo sapiens, MV4-11, 48 h, MV4, 11 (AML), read-out: GI50
  GI50: 80 pM
Homo sapiens, MV4-11, 48 h, MV4, 11 (AML), read-out: Log(GI50) (converted)
  GI50: 76.9 pM
Homo sapiens, NALM-6, 48 h, NALM-6 (ALL), read-out: GI50
  GI50: 140 pM
Homo sapiens, NALM-6, 48 h, NALM-6 (ALL), read-out: Log(GI50) (converted)
  GI50: 135 pM
Homo sapiens, NCI-H929, 48 h, H929 (MM), read-out: GI50
  GI50: 340 pM
Homo sapiens, NCI-H929, 48 h, H929 (MM), read-out: Log(GI50) (converted)
  GI50: 335 pM
Homo sapiens, OPM-2, 48 h, OPM2 (MM), read-out: GI50
  GI50: 140 pM
Homo sapiens, OPM-2, 48 h, OPM2 (MM), read-out: Log(GI50) (converted)
  GI50: 135 pM
Homo sapiens, RPMI-8226, 48 h, RPMI8226 (MM), read-out: GI50
  GI50: 260 pM
Homo sapiens, RPMI-8226, 48 h, RPMI8226 (MM), read-out: Log(GI50) (converted)
  GI50: 262 pM
Homo sapiens, RS4-11, 48 h, RS4, 11 (ALL), read-out: GI50
  GI50: 100 pM
Homo sapiens, RS4-11, 48 h, RS4, 11 (ALL), read-out: Log(GI50) (converted)
  GI50: 100 pM
Homo sapiens, Ramos, 48 h, Ramos (NHL), read-out: GI50
  GI50: 160 pM
Homo sapiens, Ramos, 48 h, Ramos (NHL), read-out: Log(GI50) (converted)
  GI50: 160 pM
Homo sapiens, SET-2, 48 h, SET-2 (AML), read-out: GI50
  GI50: 340 pM
Homo sapiens, SET-2, 48 h, SET-2 (AML), read-out: Log(GI50) (converted)
  GI50: 340 pM
Homo sapiens, SU-DHL-1, 48 h, SuDHL-1 (NHL), read-out: GI50
  GI50: 10000 pM
Homo sapiens, SU-DHL-1, 48 h, SuDHL-1 (NHL), read-out: Log(GI50) (converted)
  GI50: 10000 pM
Homo sapiens, SU-DHL-4, 48 h, SuDHL-4 (NHL), read-out: GI50
  GI50: 450 pM
Homo sapiens, SU-DHL-4, 48 h, SuDHL-4 (NHL), read-out: Log(GI50) (converted)
  GI50: 447 pM
Homo sapiens, SU-DHL-6, 48 h, SuDHL-6 (NHL), read-out: GI50
  GI50: 160 pM
Homo sapiens, SU-DHL-6, 48 h, SuDHL-6 (NHL), read-out: Log(GI50) (converted)
  GI50: 160 pM
Homo sapiens, SUP-B15, 48 h, SUP-B15 (ALL), read-out: GI50
  GI50: 190 pM
Homo sapiens, SUP-B15, 48 h, SUP-B15 (ALL), read-out: Log(GI50) (converted)
  GI50: 190 pM
Homo sapiens, SUP-T1, 48 h, SUP-T1 (NHL), read-out: GI50
  GI50: 5570 pM
Homo sapiens, SUP-T1, 48 h, SUP-T1 (NHL), read-out: Log(GI50) (converted)
  GI50: 5570 pM
Homo sapiens, U-937, 48 h, U937 (NHL), read-out: GI50
  GI50: 200 pM
Homo sapiens, U-937, 48 h, U937 (NHL), read-out: Log(GI50) (converted)
  GI50: 200 pM
HuT78 (NHL)
  Differential: 0.195
INA-6 (MM)
  Differential: 0.555
INA-6, 48 h, INA-6 (MM), read-out: GI50
  GI50: 120 pM
INA-6, 48 h, INA-6 (MM), read-out: Log(GI50) (converted)
  GI50: 120 pM
K562 (CML)
  Differential: 0.314
KM-H2 (HL)
  Differential: 0.266
KMS11 (MM)
  Differential: −0.050
KMS11-Luc (MM)
  Differential: 0.172
KMS12 (MM)
  Differential: 0.172
KMS18-Luc (MM)
  Differential: −0.080
KMS26 (MM)
  Differential: 0.254
KMS-26, 48 h, KMS26 (MM), read-out: GI50
  GI50: 240 pM
KMS-26, 48 h, KMS26 (MM), read-out: Log(GI50) (converted)
  GI50: 240 pM
Karpas-299 (NHL)
  Differential: 0.333
Karpas-299-Luc (NHL)
  Differential: −1.671
Karpas-422 (NHL)
  Differential: −1.077
Kasumi-1 (AML)
  Differential: −0.010
L363 (MM)
  Differential: 0.520
L428 (HL)
  Differential: −1.667
L-1236 (HL)
  Differential: −0.930
L-1236, 48 h, L-1236 (HL), read-out: GI50
  GI50: 3670 pM
L-1236, 48 h, L-1236 (HL), read-out: Log(GI50) (converted)
  GI50: 3660 pM
LP1 (MM)
  Differential: 0.322
MHH-CALL-2 (ALL)
  Differential: 0.136
MHH-CALL-3 (ALL)
  Differential: 0.333
MHH-CALL-4 (ALL)
  Differential: −1.366
MHHCALL4, 48 h, MHH-CALL-4 (ALL), read-out: GI50
  GI50: 10000 pM
MHHCALL4, 48 h, MHH-CALL-4 (ALL), read-out: Log(GI50) (converted)
  GI50: 10000 pM
MM1-S (MM)
  Differential: 0.254
MM1-S-Luc (MM)
  Differential: 0.272
MOLM13-Luc (AML)
  Differential: 0.279
MOLT-3 (ALL)
  Differential: 0.109
MOLT-4 (ALL)
  Differential: 0.114
MUTZ-5 (ALL)
  Differential: −1.366
MV4, 11 (AML)
  Differential: 0.747
MV4, 11Luc (AML)
  Differential: 0.613
NALM-6 (ALL)
  Differential: 0.504
NALM-19 (ALL)
  Differential: 0.355
OPM2 (MM)
  Differential: 0.504
REH (ALL)
  Differential: 0.379
RL (NHL)
  Differential: −1.667
RPMI8226 (MM)
  Differential: 0.216
RS4, 11 (ALL)
  Differential: 0.634
Ramos (NHL)
  Differential: 0.430
SEM-Luc (ALL)
  Differential: 0.458
SET-2 (AML)
  Differential: 0.102
SR (NHL)
  Differential: 0.591
SUP-B15 (ALL)
  Differential: 0.355
SUP-M2 (NHL)
  Differential: 0.379
SUP-M2, 48 h, SUP-M2 (NHL), read-out: GI50
  GI50: 180 pM
SUP-M2, 48 h, SUP-M2 (NHL), read-out: Log(GI50) (converted)
  GI50: 180 pM
SUP-T1 (NHL)
  Differential: −1.112
SuDHL-1 (NHL)
  Differential: −1.366
SuDHL-4 (NHL)
  Differential: −0.016
SuDHL-6 (NHL)
  Differential: 0.430
TANOUE (ALL)
  Differential: −1.366
U937 (NHL)
  Differential: 0.333
UKE1, 48 h, UKE-1 (AML), read-out: GI50
  GI50: 180 pM
UKE1, 48 h, UKE-1 (AML), read-out: Log(GI50) (converted)
  GI50: 175 pM
UKE-1 (AML)
  Differential: 0.391
YT (ALL)
  Differential: −1.366
